In publication PMC5218480 (PLoS ONE, 2017):

Tested on: MV-4-11 cells
Experiment: Gene expression microarray analysis (Affymetrix PrimeView) and GSEA
Format: cell-based, human
Parameters: RFU PODN (11730768_x_at) / Fold change /veh PODN (11730768_x_at) / RFU LINC00158 (11744669_a_at) / Fold change /veh LINC00158 (11744669_a_at) / RFU DUSP10 (11751237_a_at) / Fold change /veh DUSP10 (11751237_a_at) / RFU ID3 (11757404_x_at) / Fold change /veh ID3 (11757404_x_at) / RFU PLEKHG5 (11737974_s_at) / Fold change /veh PLEKHG5 (11737974_s_at) / RFU LRRC4B (11730491_at) / Fold change /veh LRRC4B (11730491_at) / RFU GIMAP4 (11747438_a_at) / Fold change /veh GIMAP4 (11747438_a_at) / RFU KRT8 (11758183_x_at) / Fold change /veh KRT8 (11758183_x_at) / RFU CNN1 (11734310_a_at) / Fold change /veh CNN1 (11734310_a_at) / RFU VPS37D (11726825_at) / Fold change /veh VPS37D (11726825_at) / RFU C10orf10 (11716522_x_at) / Fold change /veh C10orf10 (11716522_x_at) / RFU KIR2DL2 /// KIR2DL4 /// KIR2DL5A /// KIR2DL5B /// KIR2DS1 /// KIR2DS2 /// KIR2DS3 /// KIR2DS4 /// KIR3DL3 /// KIR3DL3 /// KIR3DS1 (11738374_at) / Fold change /veh KIR2DL2 /// KIR2DL4 /// KIR2DL5A /// KIR2DL5B /// KIR2DS1 /// KIR2DS2 /// KIR2DS3 /// KIR2DS4 /// KIR3DL3 /// KIR3DL3 /// KIR3DS1 (11738374_at) / RFU C1QL1 (11718748_at) / Fold change /veh C1QL1 (11718748_at) / RFU TMPRSS4 (11747572_a_at) / Fold change /veh TMPRSS4 (11747572_a_at) / RFU HAMP (11756126_x_at) / Fold change /veh HAMP (11756126_x_at) / RFU RNFT2 (11725882_a_at) / Fold change /veh RNFT2 (11725882_a_at) / RFU NR4A2 (11747474_a_at) / Fold change /veh NR4A2 (11747474_a_at) / RFU ABCC12 (11746883_a_at) / Fold change /veh ABCC12 (11746883_a_at) / RFU TMEM136 (11760407_x_at) / Fold change /veh TMEM136 (11760407_x_at) / RFU CLDN22 /// WWC2 (11732394_at) / Fold change /veh CLDN22 /// WWC2 (11732394_at) / RFU HLA-DPB1 (11760878_x_at) / Fold change /veh HLA-DPB1 (11760878_x_at) / RFU SPINT1 (11716480_a_at) / Fold change /veh SPINT1 (11716480_a_at) / RFU GAP43 (11754022_s_at) / Fold change /veh GAP43 (11754022_s_at) / RFU A4GNT (11735810_at) / Fold change /veh A4GNT (11735810_at) / RFU PRB3 (11715151_x_at) / Fold change /veh PRB3 (11715151_x_at) / RFU TUBB4B (11761932_at) / Fold change /veh TUBB4B (11761932_at) / RFU CAPN14 (11732068_a_at) / Fold change /veh CAPN14 (11732068_a_at) / RFU TMCC2 (11721928_a_at) / Fold change /veh TMCC2 (11721928_a_at) / RFU IRGQ (11745062_a_at) / Fold change /veh IRGQ (11745062_a_at) / RFU FAM174B (11720279_a_at) / Fold change /veh FAM174B (11720279_a_at) / RFU TMPRSS4 (11748680_a_at) / Fold change /veh TMPRSS4 (11748680_a_at) / RFU FAM212B (11763350_a_at) / Fold change /veh FAM212B (11763350_a_at) / RFU PLEKHG5 (11743358_a_at) / Fold change /veh PLEKHG5 (11743358_a_at) / RFU ZSCAN30 (11745921_a_at) / Fold change /veh ZSCAN30 (11745921_a_at) / RFU CMKLR1 (11741424_a_at) / Fold change /veh CMKLR1 (11741424_a_at) / RFU LOC101060620 /// MAPK8IP1 (11723275_at) / Fold change /veh LOC101060620 /// MAPK8IP1 (11723275_at) / RFU SPTSSB (11747773_x_at) / Fold change /veh SPTSSB (11747773_x_at) / RFU PRSS12 (11739890_at) / Fold change /veh PRSS12 (11739890_at) / RFU BIN1 (11741810_x_at) / Fold change /veh BIN1 (11741810_x_at) / RFU WNT11 (11732464_a_at) / Fold change /veh WNT11 (11732464_a_at) / RFU C10orf10 (11716521_a_at) / Fold change /veh C10orf10 (11716521_a_at) / RFU C5orf56 (11738089_at) / Fold change /veh C5orf56 (11738089_at) / RFU CYB561 (11721691_x_at) / Fold change /veh CYB561 (11721691_x_at) / RFU ANKRD19P (11752326_a_at) / Fold change /veh ANKRD19P (11752326_a_at) / RFU OR2T12 /// OR2T33 /// OR2T8 (11738714_s_at) / Fold change /veh OR2T12 /// OR2T33 /// OR2T8 (11738714_s_at) / RFU VCAN (11748164_a_at) / Fold change /veh VCAN (11748164_a_at) / RFU JSRP1 (11732532_at) / Fold change /veh JSRP1 (11732532_at) / RFU KRTAP10-11 (11738290_x_at) / Fold change /veh KRTAP10-11 (11738290_x_at) / RFU MYO3A (11730013_a_at) / Fold change /veh MYO3A (11730013_a_at) / RFU EBF3 (11725865_a_at) / Fold change /veh EBF3 (11725865_a_at) / RFU CAMK2N1 (11719241_x_at) / Fold change /veh CAMK2N1 (11719241_x_at) / RFU C5orf56 (11738088_a_at) / Fold change /veh C5orf56 (11738088_a_at) / RFU OLFML3 (11715873_a_at) / Fold change /veh OLFML3 (11715873_a_at) / RFU LOC100653217 /// NTM (11731650_a_at) / Fold change /veh LOC100653217 /// NTM (11731650_a_at) / RFU MAPK11 (11762145_a_at) / Fold change /veh MAPK11 (11762145_a_at) / RFU FIZ1 (11724087_x_at) / Fold change /veh FIZ1 (11724087_x_at) / RFU OASL (11726364_x_at) / Fold change /veh OASL (11726364_x_at) / RFU SOX15 (11748057_x_at) / Fold change /veh SOX15 (11748057_x_at) / RFU CD79A (11719716_a_at) / Fold change /veh CD79A (11719716_a_at) / RFU HIST1H1D (11736915_at) / Fold change /veh HIST1H1D (11736915_at) / RFU CASKIN2 (11723855_a_at) / Fold change /veh CASKIN2 (11723855_a_at) / RFU LOC730098 (11760151_x_at) / Fold change /veh LOC730098 (11760151_x_at) / RFU OR4N2 (11742367_at) / Fold change /veh OR4N2 (11742367_at) / RFU PRRT2 (11749266_a_at) / Fold change /veh PRRT2 (11749266_a_at) / RFU SNX32 (11753110_a_at) / Fold change /veh SNX32 (11753110_a_at) / RFU CDHR5 (11726645_a_at) / Fold change /veh CDHR5 (11726645_a_at) / RFU RCAN1 (11760418_a_at) / Fold change /veh RCAN1 (11760418_a_at) / RFU FAM167A (11723789_a_at) / Fold change /veh FAM167A (11723789_a_at) / RFU FAM26E (11764081_at) / Fold change /veh FAM26E (11764081_at) / RFU ISYNA1 (11749810_s_at) / Fold change /veh ISYNA1 (11749810_s_at) / RFU ACY1 (11761880_at) / Fold change /veh ACY1 (11761880_at) / RFU 11764098_at / Fold change /veh 11764098_at / RFU SAMD14 (11745864_x_at) / Fold change /veh SAMD14 (11745864_x_at) / RFU NPB (11741838_a_at) / Fold change /veh NPB (11741838_a_at) / RFU TMPRSS6 (11731388_a_at) / Fold change /veh TMPRSS6 (11731388_a_at) / RFU KRTAP10-2 (11738614_at) / Fold change /veh KRTAP10-2 (11738614_at) / RFU ARHGAP8 /// PRR5-ARHGAP8 (11727945_x_at) / Fold change /veh ARHGAP8 /// PRR5-ARHGAP8 (11727945_x_at) / RFU KRTAP5-7 /// NADSYN1 (11734609_at) / Fold change /veh KRTAP5-7 /// NADSYN1 (11734609_at) / RFU RASL12 (11751679_a_at) / Fold change /veh RASL12 (11751679_a_at) / RFU CDKN2B (11736163_a_at) / Fold change /veh CDKN2B (11736163_a_at) / RFU PRF1 (11729649_at) / Fold change /veh PRF1 (11729649_at) / RFU, ZNF638 /// ZNF638-IT1 / Fold change vs veh, ZNF638 /// ZNF638-IT1 / RFU, PANK3 / Fold change vs veh, PANK3 / RFU, SH3YL1 / Fold change vs veh, SH3YL1 / RFU, ZEB2 / Fold change vs veh, ZEB2 / RFU, NRIP1 / Fold change vs veh, NRIP1 / RFU, PTTG1IP / Fold change vs veh, PTTG1IP / RFU, CAPN2 / Fold change vs veh, CAPN2 / RFU, MED14 / Fold change vs veh, MED14 / RFU, SNORA58 / Fold change vs veh, SNORA58 / RFU, C1orf63 / Fold change vs veh, C1orf63 / RFU, LRRFIP1 / Fold change vs veh, LRRFIP1 / RFU, NDUFAF7 / Fold change vs veh, NDUFAF7 / RFU, SLC12A2 / Fold change vs veh, SLC12A2 / RFU, IBTK / Fold change vs veh, IBTK / RFU, ESF1 / Fold change vs veh, ESF1 / Fold change vs veh, TMEM50B / RFU, TAOK1 / Fold change vs veh, TAOK1 / RFU, ACBD3 / Fold change vs veh, ACBD3 / RFU, TMA16 / Fold change vs veh, TMA16 / RFU, RWDD3 / Fold change vs veh, RWDD3 / RFU, BCAT1 / Fold change vs veh, BCAT1 / RFU, EDEM3 / Fold change vs veh, EDEM3 / RFU, TMEM33 / Fold change vs veh, TMEM33 / RFU, WDR75 / Fold change vs veh, WDR75 / RFU, AHCTF1 / Fold change vs veh, AHCTF1 / RFU, TFRC / Fold change vs veh, TFRC / RFU, ZDHHC17 / Fold change vs veh, ZDHHC17 / RFU, NOM1 / Fold change vs veh, NOM1 / RFU, ARL8B / Fold change vs veh, ARL8B / RFU, ZBTB11 / Fold change vs veh, ZBTB11 / RFU, TAMM41 / Fold change vs veh, TAMM41 / RFU, KIAA1704 /// LOC100996395 / Fold change vs veh, KIAA1704 /// LOC100996395 / RFU, ING1 / Fold change vs veh, ING1 / RFU, TRMT61B / Fold change vs veh, TRMT61B / RFU, FUBP3 / Fold change vs veh, FUBP3 / RFU, TP53 / Fold change vs veh, TP53 / RFU, TNKS2 / Fold change vs veh, TNKS2 / RFU, ZFP14 / Fold change vs veh, ZFP14 / RFU, ACTR2 / Fold change vs veh, ACTR2 / RFU, PPP3R1 / Fold change vs veh, PPP3R1 / RFU, PIK3R1 / Fold change vs veh, PIK3R1 / RFU, HNRNPA1 / Fold change vs veh, HNRNPA1 / RFU, RNF170 / Fold change vs veh, RNF170 / RFU, ZNF28 / Fold change vs veh, ZNF28 / RFU, RNGTT / Fold change vs veh, RNGTT / RFU, OGT / Fold change vs veh, OGT / RFU, BRD1 / Fold change vs veh, BRD1 / RFU, MARS / Fold change vs veh, MARS / RFU, ZNF655 / Fold change vs veh, ZNF655 / RFU, FAHD1 / Fold change vs veh, FAHD1 / RFU, BDP1 / Fold change vs veh, BDP1 / RFU, LRRCC1 / Fold change vs veh, LRRCC1 / RFU, ARID1A / Fold change vs veh, ARID1A / RFU, ZNF146 / Fold change vs veh, ZNF146 / RFU, ZNF330 / Fold change vs veh, ZNF330 / RFU, GPN3 / Fold change vs veh, GPN3 / RFU, C9orf123 / Fold change vs veh, C9orf123 / RFU, N4BP2L2 / Fold change vs veh, N4BP2L2 / RFU, ARFIP1 / Fold change vs veh, ARFIP1 / RFU, FAM179B / Fold change vs veh, FAM179B / RFU, BCL10 / Fold change vs veh, BCL10 / RFU, UHRF1BP1L / Fold change vs veh, UHRF1BP1L / RFU, BET1 / Fold change vs veh, BET1 / RFU, CNOT2 / Fold change vs veh, CNOT2 / RFU, ZNF268 / Fold change vs veh, ZNF268 / Fold change vs veh, ZNF507 / RFU, DGCR2 / Fold change vs veh, DGCR2 / RFU, WDSUB1 / Fold change vs veh, WDSUB1 / Fold change vs veh, HSP90B1 /// MIR3652 / RFU, ADSS / Fold change vs veh, ADSS / RFU, GK / Fold change vs veh, GK / RFU, ZNF148 / Fold change vs veh, ZNF148 / RFU, TAF9 / Fold change vs veh, TAF9 / RFU, SLC1A5 / Fold change vs veh, SLC1A5 / RFU, SLMO2 / Fold change vs veh, SLMO2 / RFU, ABCC4 / Fold change vs veh, ABCC4 / RFU, LOC101060439 /// RAP1B / Fold change vs veh, LOC101060439 /// RAP1B / RFU, RFX7 / Fold change vs veh, RFX7 / RFU, GTPBP10 / Fold change vs veh, GTPBP10 / RFU, CNEP1R1 / Fold change vs veh, CNEP1R1 / RFU, BIVM-ERCC5 /// ERCC5 / Fold change vs veh, BIVM-ERCC5 /// ERCC5 / RFU, ILF3 / Fold change vs veh, ILF3 / RFU 11762660_at / Fold change /veh 11762660_at / RFU VCAN (11757783_s_at) / Fold change /veh VCAN (11757783_s_at) / RFU DDX43 (11728927_at) / Fold change /veh DDX43 (11728927_at) / RFU KRT8 (11758188_x_at) / Fold change /veh KRT8 (11758188_x_at) / RFU NKD1 (11759106_at) / Fold change /veh NKD1 (11759106_at) / RFU SRD5A1 (11742802_a_at) / Fold change /veh SRD5A1 (11742802_a_at) / RFU TPSAB1 /// TPSB2 (11721975_s_at) / Fold change /veh TPSAB1 /// TPSB2 (11721975_s_at) / RFU GSTM3 (11746129_a_at) / Fold change /veh GSTM3 (11746129_a_at) / RFU IL23R (11737362_x_at) / Fold change /veh IL23R (11737362_x_at) / RFU TMEM51 (11727254_a_at) / Fold change /veh TMEM51 (11727254_a_at) / RFU PIWIL2 (11732686_x_at) / Fold change /veh PIWIL2 (11732686_x_at) / RFU ORM1 (11744905_x_at) / Fold change /veh ORM1 (11744905_x_at) / RFU CCDC152 (11743942_at) / Fold change /veh CCDC152 (11743942_at) / RFU ECM1 (11717891_a_at) / Fold change /veh ECM1 (11717891_a_at) / RFU IL23R (11748794_a_at) / Fold change /veh IL23R (11748794_a_at) / RFU TNFAIP8L3 (11732012_x_at) / Fold change /veh TNFAIP8L3 (11732012_x_at) / RFU MBOAT4 (11741988_at) / Fold change /veh MBOAT4 (11741988_at) / RFU 11764193_at / Fold change /veh 11764193_at / RFU TMEM53 (11763286_at) / Fold change /veh TMEM53 (11763286_at) / RFU MAGEB2 (11727129_at) / Fold change /veh MAGEB2 (11727129_at) / RFU TMEM200A (11744735_a_at) / Fold change /veh TMEM200A (11744735_a_at) / RFU CCDC152 (11751479_a_at) / Fold change /veh CCDC152 (11751479_a_at) / RFU FAM211A (11726209_a_at) / Fold change /veh FAM211A (11726209_a_at) / RFU RGS16 (11746705_a_at) / Fold change /veh RGS16 (11746705_a_at) / RFU VCAN (11755009_s_at) / Fold change /veh VCAN (11755009_s_at) / RFU RHOB (11743442_s_at) / Fold change /veh RHOB (11743442_s_at) / RFU RGS16 (11720943_a_at) / Fold change /veh RGS16 (11720943_a_at) / RFU RGS16 (11720944_at) / Fold change /veh RGS16 (11720944_at) / RFU, VPS4B / Fold change vs veh, VPS4B / RFU, CREB1 / Fold change vs veh, CREB1 / RFU, DNAJC13 / Fold change vs veh, DNAJC13 / RFU, GNAQ / Fold change vs veh, GNAQ / RFU, CDK5R1 / Fold change vs veh, CDK5R1 / RFU, ZRANB3 / Fold change vs veh, ZRANB3 / RFU, CUL4A / Fold change vs veh, CUL4A / RFU, CCNY / Fold change vs veh, CCNY / RFU, UFL1 / Fold change vs veh, UFL1 / RFU, COG3 / Fold change vs veh, COG3 / RFU, DIAPH2 / Fold change vs veh, DIAPH2 / RFU, SKA2 / Fold change vs veh, SKA2 / RFU, AFF3 / Fold change vs veh, AFF3 / RFU, LMF1 / Fold change vs veh, LMF1 / RFU, IPO11 / Fold change vs veh, IPO11 / RFU, DFFB / Fold change vs veh, DFFB / RFU, FOXP1 / Fold change vs veh, FOXP1 / RFU, CARD8 / Fold change vs veh, CARD8 / RFU, STRN3 / Fold change vs veh, STRN3 / RFU, ADK / Fold change vs veh, ADK / RFU, RASSF2 / Fold change vs veh, RASSF2 / RFU, WIPF1 / Fold change vs veh, WIPF1 / RFU, LARP1B / Fold change vs veh, LARP1B / RFU, RASA1 / Fold change vs veh, RASA1 / RFU, RB1 / Fold change vs veh, RB1 / RFU, PPFIA1 / Fold change vs veh, PPFIA1 / RFU, MAT2A / Fold change vs veh, MAT2A / RFU, CCT5 / Fold change vs veh, CCT5 / RFU, WDR92 / Fold change vs veh, WDR92 / RFU, CUX1 / Fold change vs veh, CUX1 / RFU, TTC7A / Fold change vs veh, TTC7A / RFU, TMEM135 / Fold change vs veh, TMEM135 / RFU, DEPTOR / Fold change vs veh, DEPTOR / RFU, CPM / Fold change vs veh, CPM / RFU, DNAJB6 / Fold change vs veh, DNAJB6 / RFU, CACNA2D3 / Fold change vs veh, CACNA2D3 / RFU, DTX4 / Fold change vs veh, DTX4 / RFU, TFCP2 / Fold change vs veh, TFCP2 / RFU, GMCL1 /// GMCL1P1 / Fold change vs veh, GMCL1 /// GMCL1P1 / RFU, AEBP2 / Fold change vs veh, AEBP2 / RFU, SNHG1 /// SNORD22 /// SNORD25 /// SNORD26 /// SNORD27 /// SNORD28 /// SNORD29 /// SNORD31 / Fold change vs veh, SNHG1 /// SNORD22 /// SNORD25 /// SNORD26 /// SNORD27 /// SNORD28 /// SNORD29 /// SNORD31 / Fold change (Aza/veh), C12orf56 (ProbeSet 11735607_a_at) / Fold change (ACY-1035/veh), C12orf56 (ProbeSet 11735607_a_at) / Fold change (Aza/veh), FGFR1OP (ProbeSet 11751329_s_at) / Fold change (ACY-1035/veh), FGFR1OP (ProbeSet 11751329_s_at) / Fold change (Aza/veh), VPS36 (ProbeSet 11739960_a_at) / Fold change (ACY-1035/veh), VPS36 (ProbeSet 11739960_a_at) / RFU SYPL1 (11715823_x_at) / Fold change /veh SYPL1 (11715823_x_at) / RFU IGFBP7 (11715501_s_at) / Fold change /veh IGFBP7 (11715501_s_at) / RFU REEP3 (11722064_at) / Fold change /veh REEP3 (11722064_at) / RFU IGLL1 (11728026_x_at) / Fold change /veh IGLL1 (11728026_x_at): dose or concentration left out as unconfirmed
Conditions: ProbeSet 11749477_a_at; LIST B

Nc1ccc(-c2cccs2)cc1NC(=O)c1ccc2c(c1)cc(C1CC1)n2CCN1CCOCC1 [ACY-1035]
RFU, EDEM3: 51.94 RFU
